Laboratory results as given in PMC5469758, “Identification of an in vivo orally active dual-binding protein-protein interaction inhibitor targeting TNFα through combined in silico/in vitro/in vivo screening” (Scientific Reports, 2017).

Assays:
[1] = tested on: human TNFα induced apoptosis on the L929 cell line; test: Neutralization of human TNFα induced apoptosis in L929 cells (MTT); type: cell-based; settings: L929 cells
Procedure: 80% confluent L929 cells were plated in flat bottom plates at 4 × 10^5 cells per well in 100 μl of DMEM medium containing 10% FBS, 2 mM L-Glutamine, 100 U/ml Penicillin − 100 μg/ml Streptomycin and incubated for one night at 37 °C, 5% CO2. TNFα or TNFβ (150 pg/ml), Actinomycin D (4 μg/ml) and the compounds at different concentrations (ranging from 100 μM to 0.8 μM) were mixed in 150 μl DMEM medium 1% FBS, 2 mM L-Glutamine, 100 U/ml Penicillin−100 μg/ml Streptomycin in U-bottom plates. After two hours incubation at 37 °C, 5% CO2, 100 μl of the mix was added to the plated cells and incubated at 37 °C, 5% CO2 for 24 hours. Supernatants were discarded and 100 μl of MTT at 0.5 mg/ml were added to wells. After two hours, supernatants were discarded and 200 μl of DMSO were then added. Plates were read at 570 nm with a spectrophotometer providing the optical density (OD) of each well. The percentage of neutralization of TNFα by a compound was calculated using equation 3:3 %Neutra=ODcompound−ODTNFα/ODcells−ODTNFα×100
An IC50 could be computed from the percentage of neutralization for each compound.

[2] = design: method as in PMID 25160057; settings: cited from earlier work
[3] = tested on: TNFα induced NF-κB activation in HEK cells; test: HEK-Blue TNFα NF-κB secreted embryonic alkaline phosphatase reporter assay; type: cell-based, human; settings: HEK cells
Procedure: 80% confluent HEK-Blue™ TNFα were plated in flat bottom plates at 5 × 10^4 per well in 100 μl of DMEM containing 2 mM L-Glutamine, 100 U/ml Penicillin − 100 μg/ml Streptomycin and incubated at 37 °C, 5% CO2. Serial dilutions of compounds (ranging from 100 μM to 0.8 μM) were mixed with 400 pg/ml of human TNFα in DMEM containing 2% of FBS, 2 mM L-Glutamine, 100 U/ml Penicillin−100 μg/ml Streptomycin in U-bottom plates. After two hours of incubation at 37 °C, 5% CO2, 100 μl of the mix was added to the plated cells and incubated 24 hours at 37 °C, 5% CO2. 20 μl of supernatants were incubated for 3 hours with 180 μl of QUANTI-Blue™ to reveal secretion of phosphatase alcaline and plates were read at 620 nm with a spectrophotometer providing the optical density (OD).

[4] = tested on: TNFα/TNFRI; design: method as in PMID 16284179; settings: cited from earlier work
[5] = target: TNFα; settings: fluorescence binding assay; cited from earlier work
[6] = tested on: Balb/C mice; test: LPS/D-Galactosamine induced lethal shock (TNFα-dependent hepatic shock model); type: in vivo; settings: livers eight hours after LPS/D-Galactosamine
Procedure: 7 weeks-old Balb/C mice were force-fed with 100 μl of a solution of DMSO containing various doses of compound 1 (5 mg down to 0.5 mg) eight hours before receiving an intraperitoneal injection of 200 μl of PBS containing 0.1 μg of LPS and 20 mg of D-Galactosamine. A control group (DMSO) was force-fed with 100 μl of a solution of DMSO alone eight hours before to be injected with 200 μl of LPS/D-Galactosamine solution. Mice survival was monitored for 48 hours after the injection of LPS/D-Galactosamine.
7 weeks-old Balb/C mice were forced-fed with a solution of DMSO containing 5 mg of compound 1 eight hours before receiving an intraperitoneal injection of 200 μl of PBS containing 0.1 μg of LPS and 20 mg of D-Galactosamine. Eight hours after LPS/D-Galactosamine injection, mice were sacrificed by cervical dislocation and livers were harvested, fixed in 4% formalin and embedded in paraffin. […] Slides were scanned with a slide scanner (Perkin Elmer) and analyzed with Pannoramic viewer (3D HISTECH).
7 weeks-old Balb/C mice were forced-fed with a solution of DMSO containing 5 mg of compound 1 eight hours before receiving an intraperitoneal injection of 200 μl of PBS containing 0.1 μg of LPS and 20 mg of D-Galactosamine. Three hours after LPS/D-Galactosamine injection, mice were anesthetized with ketamine/xylazine to recover blood by cardiac puncture. Sera were kept at −80 °C until assay.
TNFα in serum was quantified using U-CyTech biosciences kits (Utrecht, The Netherlands) according to manufacturer’s procedures.
7 weeks-old Balb/C mice were forced-fed with a solution of DMSO containing 5 mg of compound 1 eight hours before receiving an intraperitoneal injection of 200 μl of PBS containing 0.1 μg of LPS and 20 mg of D-Galactosamine. Eight hours after, mice were anesthetized by an injection of ketamine/xylazine to recover blood by cardiac puncture. Sera were kept at −80 °C until assay. Quantification of AST/ALT was performed using Architec ci 8200 analyser (Abbott) with reagent kits from Abbott.

Molecule: Cc1cc2occ(CN(C)CCN(C)Cc3cn(-c4cccc(C(F)(F)F)c4)c4ccccc34)c(=O)c2cc1C [SPD304]
- concentration above which no cells survived (cellular toxicity) [1]: more than 30 µM
- toxicity precluding in vivo use [2]: high toxicity
- concentration above which no cells survived (cellular toxicity) [3]: more than 10 µM
- IC50 [4]: 22 µM
- Kd [5]: 5.4 ± 0.2 µM

Molecule: etanercept
- expression of cleaved caspase 3 in liver (immunohistochemistry) [6]: reduced expression of cleaved caspase 3
- liver damage and hemorrhage (H&E histopathology) [6]: reduced liver damage and hemorrhage
